Assay results taken from US20130165343A1, “IDENTIFICATION OF MULTIGENE BIOMARKERS” (AVEO Pharmaceuticals, Inc., priority 2011, published 2013).

Experiments:
[1] = tested on: BH murine tumor archive (HER2-dependent murine breast tumors); experiment: Tumor response to rapamycin in subcutaneously transplanted BH archive murine breast tumors; assay type: in vivo, mouse; settings: out of 66 tumors; 0.1 mg/kg daily, intraperitoneal injection
From the text: (§1) A genetically diverse population of more than 100 murine breast tumors (BH archive) was used to identify tumors that are sensitive to a drug of interest (responders) and tumors that are resistant to the same drug of interest (non-responders). The BH archive was established by in vivo propagation and cryopreservation of primary tumor material from more than 100 spontaneous murine breast tumors derived from engineered chimeric mice that develop HER2-dependent, inducible spontaneous breast tumors.
The BH archive of more than 100 tumors was produced essentially as follows. Primary tumor cells were isolated from the chimeric animals by physical disruption of the tumors using cell strainers. Typically 1×10^5 cells were mixed with Matrigel (50:50 by vol.) and injected subcutaneously into female NCr nu/nu mice. When these tumors grew to approximately 500 mm3, which typically required 2 to 4 weeks, they were collected for one further round of in vivo propagation, after which tumor material was cryopreserved in liquid nitrogen. […]
Tumors from the BH murine tumor archive were tested for sensitivity to treatment with rapamycin (also known as sirolimus, or RAPAMUNE®). […] Tumors were measured twice per week by a caliper, and tumor volume was calculated.

[2] = tested on: BH murine tumor archive (HER2-dependent murine breast tumors); experiment: Tumor response to tivozanib in subcutaneously transplanted BH archive murine breast tumors; assay type: in vivo, mouse
From the text: as §1
The BH archive of more than 100 tumors was produced essentially as follows. Primary tumor cells were isolated from the chimeric animals by physical disruption of the tumors using cell strainers. Typically 1×10^5 cells were mixed with Matrigel (50:50 by vol.) and injected subcutaneously into female NCr nu/nu mice. When these tumors grew to approximately 500 mm3, which typically required 2 to 4 weeks, they were collected for one further round of in vivo propagation, after which tumor material was cryopreserved in liquid nitrogen. To characterize the propagated and archived tumors, 1×10^5 cells from each individual tumor line were thawed and injected subcutaneously in BALB/c nude mice. When the tumors reached a mean size of 500 to 800 mm3, animals were sacrificed and tumors were surgically removed for further analysis.
Tumors in the BH murine tumor archive were tested for sensitivity to treatment with tivozanib. Evaluation of tumor response to this drug treatment was performed essentially as follows. Subcutaneously transplanted tumors were established by injecting physically disrupted tumor cells (mixed with Matrigel) into 6 week-old female BALB/c nude mice. When the tumors reached approximately 100-200 mm3, 20 tumor-bearing mice were randomized into two groups. Group 1 received vehicle. Group 2 received tivozanib at 5 mg/kg daily by oral gavage. Tumors were measured twice per week by a caliper, and tumor volume was calculated.
The variation in response was expected, because the mouse model tumors had been propagated from spontaneously arising tumors, and were therefore expected to contain differing sets of secondary de novo mutations that contributed to tumorogenesis. […] Tivozanib-sensitive tumors and tivozanib-resistant tumors were identified (classified) on the basis of tumor growth inhibition, histopathology and IHC (CD31).

[3] = out of 25 tumors, 5 mg/kg tivozanib, classified by tumor growth inhibition, histopathology and IHC (CD31)

CO[C@H]1C[C@@H]2CC[C@@H](C)[C@@](O)(O2)C(=O)C(=O)N2CCCC[C@H]2C(=O)O[C@H]([C@H](C)C[C@@H]2CC[C@@H](O)[C@H](OC)C2)CC(=O)[C@H](C)/C=C(\C)[C@@H](O)[C@@H](OC)C(=O)[C@H](C)C[C@H](C)/C=C/C=C/C=C/1C [rapamycin]
number of rapamycin-resistant tumors (50% tumor growth inhibition or less) [1]: 25 | number of rapamycin-sensitive tumors (more than 50% tumor growth inhibition) [1]: 41

COc1cc2nccc(Oc3ccc(NC(=O)Nc4cc(C)on4)c(Cl)c3)c2cc1OC [tivozanib]
tumor progression (by caliper measurement) in tivozanib-sensitive tumors ([2]; 5 mg/kg daily by oral gavage, BALB/c nude mice, tivozanib-sensitive tumors): no tumor progression | tumor killing in tivozanib-sensitive tumors ([2]; 5 mg/kg, tivozanib-sensitive tumors, histopathology): close to complete tumor killing, except for the peripheries | number of tumors actually resistant [2, 3]: 16 | number of tumors actually sensitive [2, 3]: 9
